Measurements: patent US7314644B2, “Extraction and purification method of active constituents from stem of Lonicera japonica thunb., its usage for anti-inflammatory and analgesic drug” (SK Chemicals Co., Ltd., priority 2002, dated 2008)

Assays:
Format in all cases: in vivo
ICR mice [1] = assay: Arachidonic acid induced ear edema test
ICR mice [2] = assay: Acetic acid induced writhing test
SD rats = assay: Toxicity test (lethal dose, symptoms, weight, autopsy)
Protocol: The active constituents of honeysuckle stem and sweroside, in the amount of 1.0 g/kg, 1.5 g/kg and 2.0 g/kg, were administered through the tail veins of SD rats (body weight: 120 to 170 g, 5 male and female rats for each administration dose, SLC, Japan), respectively, which had been fasted for 4 hours. […] An autopsy was conducted to identify presence of any abnormalities of organs.
The lethal dose of the active constituents of honeysuckle stem and sweroside was both over 5.0 g/kg for oral administration (no dead rats observed), and over 2.0 g/kg for intravenous injection (no dead rats observed).

ICR mice [3] = assay: Croton oil induced ear edema test

C=C[C@H]1[C@H](O[C@@H]2O[C@H](CO)[C@@H](O)[C@H](O)[C@H]2O)OC=C2C(=O)OCC[C@H]21 [Sweroside, sweroside]
Rate of Inhibition (%) (ICR mice [1]; Table 10, tail vein, 0.1 mg/kg): 48.3% | Rate of Inhibition (%) (ICR mice [1]; Table 10, tail vein, 1 mg/kg): 55.1% | Rate of Inhibition (%) (ICR mice [1]; Table 10, tail vein, 10 mg/kg): 69.1% | Rate of Inhibition (%) (ICR mice [1]; Table 11, oral administration, 1 mg/kg): 29.0% | Rate of Inhibition (%) (ICR mice [1]; Table 11, oral administration, 10 mg/kg): 34.7% | Rate of Inhibition (%) (ICR mice [1]; Table 11, oral administration, 100 mg/kg): 45.7% | Rate of Inhibition (%) (ICR mice [2]; Table 12, tail vein, 0.1 mg/kg): 74.6% | Rate of Inhibition (%) (ICR mice [2]; Table 12, tail vein, 1 mg/kg): 86.4% | Rate of Inhibition (%) (ICR mice [2]; Table 12, tail vein, 10 mg/kg): 89.7% | Rate of Inhibition (%) (ICR mice [2]; Table 13, oral administration, 1 mg/kg): 65.9% | Rate of Inhibition (%) (ICR mice [2]; Table 13, oral administration, 10 mg/kg): 79.1% | Rate of Inhibition (%) (ICR mice [2]; Table 13, oral administration, 100 mg/kg): 87.9% | general symptoms (SD rats; 2.0 g/kg intravenously injected, restored soon): increased respiration counts and decreased activity for about 10 minutes | autopsy result (SD rats; as is the case with the control groups): no abnormalities | weight change (SD rats; observed for 2 weeks after administration): no change in weight | Rate of Inhibition (%) (ICR mice [3]; Table 8, tail vein, 0.1 mg/kg): 49.8% | Rate of Inhibition (%) (ICR mice [3]; Table 8, tail vein, 1 mg/kg): 56.2% | Rate of Inhibition (%) (ICR mice [3]; Table 8, tail vein, 10 mg/kg): 65.7% | Rate of Inhibition (%) (ICR mice [3]; Table 9, oral administration, 1 mg/kg): 31.9% | Rate of Inhibition (%) (ICR mice [3]; Table 9, oral administration, 10 mg/kg): 43.1% | Rate of Inhibition (%) (ICR mice [3]; Table 9, oral administration, 100 mg/kg): 57.8%
